Measured values as given in PubChem BioAssay (NCI).
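Values below derive from 48-hour exposures of cells grown in 96-well plates, with endpoints linearly interpolated between the two concentrations bracketing the appropriate inhibition level. GI50: concentration for 50% inhibition of growth. TGI: total growth inhibition.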

How the values were obtained:
Assay in all cases: NCI anticancer screen, dose series, 48 h
NCI-H460 lung = system: NCI-H460 lung
RXF 393 renal = system: RXF 393 renal
BT-549 breast = system: BT-549 breast
NCI/ADR-RES ovarian = system: NCI/ADR-RES ovarian
COLO 205 colon = system: COLO 205 colon
SK-MEL-5 melanoma = system: SK-MEL-5 melanoma
PC-3 prostate = system: PC-3 prostate
OVCAR-8 ovarian = system: OVCAR-8 ovarian
SK-OV-3 ovarian = system: SK-OV-3 ovarian
U251 CNS = system: U251 CNS
KM12 colon = system: KM12 colon
HCC-2998 colon = system: HCC-2998 colon
HOP-92 NSCLC = system: HOP-92 NSCLC
TK-10 renal = system: TK-10 renal
UO-31 renal = system: UO-31 renal
786-0 renal = system: 786-0 renal
OVCAR-4 ovarian = system: OVCAR-4 ovarian
A549 NSCLC = system: A549 NSCLC
HCT-15 colon = system: HCT-15 colon
UACC-62 melanoma = system: UACC-62 melanoma
NCI-H522 lung = system: NCI-H522 lung
UACC-257 melanoma = system: UACC-257 melanoma
EKVX NSCLC = system: EKVX NSCLC
CAKI-1 renal = system: CAKI-1 renal
LOX IMVI melanoma = system: LOX IMVI melanoma
MDA-MB-435 = system: MDA-MB-435
ACHN renal = system: ACHN renal
HCT-116 colon = system: HCT-116 colon
NCI-H23 lung = system: NCI-H23 lung
SNB-19 CNS = system: SNB-19 CNS
RPMI-8226 leukemia = system: RPMI-8226 leukemia
A498 renal = system: A498 renal
SW-620 colon = system: SW-620 colon
M14 melanoma = system: M14 melanoma
NCI-H226 lung = system: NCI-H226 lung
MALME-3M melanoma = system: MALME-3M melanoma
K-562 leukemia = system: K-562 leukemia
T-47D breast = system: T-47D breast
SF-295 CNS = system: SF-295 CNS
CCRF-CEM leukemia = system: CCRF-CEM leukemia
HT29 colon = system: HT29 colon
HL-60(TB) leukemia = system: HL-60(TB) leukemia
MOLT-4 leukemia = system: MOLT-4 leukemia
DU-145 prostate = system: DU-145 prostate
SK-MEL-28 melanoma = system: SK-MEL-28 melanoma
MDA-MB-231 breast = system: MDA-MB-231 breast
SR leukemia = system: SR leukemia
SN12C renal = system: SN12C renal
SF-539 CNS = system: SF-539 CNS
SNB-75 CNS = system: SNB-75 CNS
SK-MEL-2 melanoma = system: SK-MEL-2 melanoma
SF-268 CNS = system: SF-268 CNS
MCF7 breast = system: MCF7 breast
HOP-62 NSCLC = system: HOP-62 NSCLC
HS 578T breast = system: HS 578T breast
IGROV1 ovarian = system: IGROV1 ovarian
OVCAR-5 ovarian = system: OVCAR-5 ovarian
OVCAR-3 ovarian = system: OVCAR-3 ovarian

## COc1cc2c3c(n(CCCN4CCC[C@H]4C(N)=O)c(=O)c2cc1OC)-c1cc2c(cc1C3=O)OCO2
NCI-H460 lung
  GI50: < 15.2 nM
RXF 393 renal
  GI50: 167 nM
  TGI: 2320 nM
BT-549 breast
  GI50: 70.7 nM
  TGI: 13900 nM
NCI/ADR-RES ovarian
  GI50: 154 nM
  TGI: > 100000 nM
COLO 205 colon
  GI50: 223 nM
  TGI: > 100000 nM
SK-MEL-5 melanoma
  GI50: 40.7 nM
  TGI: 199 nM
PC-3 prostate
  GI50: 329 nM
  TGI: 22600 nM
OVCAR-8 ovarian
  GI50: 78.3 nM
  TGI: 2710 nM
SK-OV-3 ovarian
  GI50: 39.6 nM
  TGI: 1260 nM
U251 CNS
  GI50: 24.9 nM
  TGI: 1890 nM
KM12 colon
  GI50: 415 nM
  TGI: 11100 nM
HCC-2998 colon
  GI50: 224 nM
  TGI: 13800 nM
HOP-92 NSCLC
  GI50: 808 nM
  TGI: > 29500 nM
TK-10 renal
  GI50: > 42300 nM
  TGI: > 100000 nM
UO-31 renal
  GI50: 40.9 nM
  TGI: > 41000 nM
786-0 renal
  GI50: 39.2 nM
  TGI: 1530 nM
OVCAR-4 ovarian
  GI50: 905 nM
  TGI: 5690 nM
A549 NSCLC
  GI50: 103 nM
  TGI: > 57300 nM
HCT-15 colon
  GI50: 318 nM
  TGI: 5800 nM
UACC-62 melanoma
  GI50: 19.3 nM
  TGI: 3210 nM
NCI-H522 lung
  GI50: 23.6 nM
  TGI: 4480 nM
UACC-257 melanoma
  GI50: 232 nM
  TGI: > 100000 nM
EKVX NSCLC
  TGI: > 100000 nM
CAKI-1 renal
  GI50: 16.2 nM
  TGI: 20700 nM
LOX IMVI melanoma
  GI50: 19.3 nM
  TGI: 485 nM
MDA-MB-435
  GI50: 148 nM
  TGI: 14000 nM
ACHN renal
  GI50: 27.4 nM
  TGI: 3860 nM
HCT-116 colon
  GI50: 32.2 nM
  TGI: 3670 nM
NCI-H23 lung
  GI50: 44.8 nM
  TGI: 2320 nM
SNB-19 CNS
  GI50: 40.5 nM
  TGI: > 100000 nM
RPMI-8226 leukemia
  GI50: 82.9 nM
  TGI: 2360 nM
A498 renal
  TGI: > 100000 nM
SW-620 colon
  GI50: 89.7 nM
  TGI: > 48200 nM
M14 melanoma
  GI50: 35.8 nM
  TGI: 2460 nM
NCI-H226 lung
  GI50: 48.1 nM
  TGI: 1180 nM
MALME-3M melanoma
  GI50: 375 nM
  TGI: > 57000 nM
K-562 leukemia
  GI50: 41 nM
  TGI: 2580 nM
T-47D breast
  GI50: 31.3 nM
SF-295 CNS
  GI50: 17.9 nM
  TGI: 15000 nM
CCRF-CEM leukemia
  GI50: < 14.6 nM
  TGI: 4600 nM
HT29 colon
  GI50: 67.4 nM
  TGI: 671 nM
HL-60(TB) leukemia
  GI50: 37.1 nM
  TGI: 3700 nM
MOLT-4 leukemia
  GI50: < 12.5 nM
  TGI: 178 nM
DU-145 prostate
  GI50: 38.2 nM
  TGI: 12600 nM
SK-MEL-28 melanoma
  GI50: 1880 nM
  TGI: > 100000 nM
MDA-MB-231 breast
  GI50: 1160 nM
  TGI: 16200 nM
SR leukemia
  TGI: 540 nM
SN12C renal
  GI50: 42.2 nM
  TGI: > 52400 nM
SF-539 CNS
  GI50: 29.6 nM
  TGI: 541 nM
SNB-75 CNS
  GI50: 30.1 nM
  TGI: 1200 nM
SK-MEL-2 melanoma
  GI50: > 100000 nM
  TGI: > 100000 nM
SF-268 CNS
  GI50: 39.8 nM
  TGI: > 100000 nM
MCF7 breast
  GI50: < 10.7 nM
  TGI: 1420 nM
HOP-62 NSCLC
  GI50: 29.3 nM
  TGI: 12700 nM
HS 578T breast
  GI50: > 100000 nM
  TGI: > 100000 nM
IGROV1 ovarian
  GI50: 379 nM
  TGI: 34900 nM
OVCAR-5 ovarian
  GI50: 319 nM
  TGI: 26500 nM
OVCAR-3 ovarian
  GI50: 161 nM
  TGI: 3660 nM
